Experimental data from EP0418064B1, “Naphthalene and tetrahydronaphthalene gem-diphosphonate derivatives” (SYMPHAR S.A., priority 1989, dated 1991).

System: Rat liver homogenates
Experiment: Antioxidant activity: FeSO₄-induced peroxide production in rat liver homogenates (thiobarbituric acid reaction)
Format: biochemical
Settings: rat liver homogenate incubated with FeSO₄; peroxide determined by thiobarbituric acid reaction, malonaldehyde as standard; read-out: IC₅₀
Protocol: Rat liver homogenates were prepared according to Fraga, C.G. et al. Free Radicals Biol. Med., 4, 155, 1988 and Kornburst D.J. et al. Lipids 15, 315, 1980.
Peroxides were generated by incubation of the homogenate with the FeSO₄ as described by Quitanilha A.T. et al. Ann. N.Y., Acad. Sci. 393, 32, 1982.
Compounds to be tested for their antioxidant activity were dissolved in DMSO and added to the incubation mixture. The amount of peroxide produced was determined by the thiobarbituric acid reaction using malonaldehyde as standard.

First: CCOP(=O)(OCC)C(=Cc1cc(C(C)(C)C)c(O)c2ccccc12)P(=O)(OCC)OCC [Example 1, Tetraethyl 2-[3-t-butyl-4-hydroxynaphthyl]ethenylidene-1,1-diphosphonate]
Second: CCOP(=O)(OCC)C(=Cc1cc(C(C)(C)C)c(O)c2c1CCCC2)P(=O)(OCC)OCC [Example 6, Tetraethyl 2-(3-tert-butyl-4-hydroxy-5,6,7,8-tetrahydronaphthyl)-ethenylidene-1,1-diphosphonate]
The IC50 of the first is 4.7-fold lower: 1500 nM for the first, 7000 nM for the second.

First: CC(C)OP(=O)(OC(C)C)C(=Cc1cc(C(C)(C)C)c(O)c2ccccc12)P(=O)(OC(C)C)OC(C)C [Example 2, Tetraisopropyl 2-[3-t-butyl-4-hydroxynaphthyl]ethenylidene-1,1-diphosphonate]
Second: CC(C)OP(=O)(OC(C)C)C(=Cc1cc(C(C)(C)C)c(O)c2c1CCCC2)P(=O)(OC(C)C)OC(C)C [Example 8, Tetraisopropyl 2-[3-tert-butyl-4-hydroxy-5,6,7,8-tetrahydronaphthyl]-ethenylidene-1,1-diphosphonate]
The IC50 of the first is 3.6-fold lower: 700 nM for the first, 2500 nM for the second.
